What all share (type): in vivo
The subject of series [1] is mTORC1 targets (4EBP1, P70S6K). Description: Western blot of mTOR targets in skeletal muscle after musclin infusion. As to conditions: WT mice. As for the experimental part:
Western blotting: Whole cell protein extracts were prepared by homogenizing skeletal muscle tissue in NaCl 150 mM, Tris-HCl 50 mM (pH 7.8), supplemented with 1.5% Triton X-100, protease and phosphatase inhibitors (Roche). Nuclear extracts were obtained using the Subcellular Protein Fractionation Kit for Tissues (Thermo Scientific).
Electrophoresis was performed on 3-8% gradient Nu-Page Tris-Acetate or 10% Nu-Page Bis-Tris gels and transferred to 0.2 μm Sequi-Blot PVDF membranes (Bio-Rad). The membranes were blotted with total AKT1 and phospho-AKT1([…], T308, Cell Signaling), FOXO1 (Cell Signaling), total OXPHOS (rodent, Abcam), musclin (custom rabbit IgG produced against partial mouse musclin sequence NH2-sfsgfgspldrlsagsvehrgkqrkavdhskkr-COOH (SEQ ID NO: 4), corresponding to amino acids 80-112, Gen Bank ID: AAS87598.1, Anaspec, Fremont, Calif.), and GAPDH (Santa Cruz Biotechnologies) antibodies. Densitometric analysis of western blots was performed using Adobe Photoshop (Adobe Systems, San Jose, Calif.).
These findings are paralleled by more pure glycolytic fibers and greater fatigability in tibialis anterior (TA) muscles of exercise-trained Ostn-KO vs. WT mice (FIGS. 13A-13C). […] GSK3β phosphorylation is associated with increased autophosphorylation of mTOR at S2481 (FIGS. 14A-14B). Furthermore, consistent with the known activating effect of GSK3β inhibition on mTORC1, we find increased phosphorylation of the mTOR targets 4EBP1, P70S6K and ULK1 in skeletal muscles of trained WT vs. Ostn-KO mice 1 h after last exercise (FIGS. 15A-15B). […] We also find that skeletal muscle autophagy flux 1 h after last exercise is increased in exercise-trained Ostn-KO vs. WT, as reflected in higher LC3A II/I ratio and lower expression of P62 on western blots (FIGS. 16A-16G).
(In general: A western blot detects proteins with antibodies after separation by electrophoresis.)

The nature of series [2]: Plasma musclin level by custom ELISA after osmotic pump infusion of musclin. As to conditions: WT mice, musclin 1 ng/g/h i.p. by osmotic pump for 7 d. As for the experimental part:
(§1) Whole body composition was obtained by time-domain nuclear magnetic resonance under isoflurane anesthesia (Bruker Minispec; Billerica, Mass.). Osmotic pumps: Osmotic pumps (model 1004, 100 μl volume, 0.11 μl/hr release rate, 28 days duration, Alzet Durect, Cupertino, Calif.), loaded with saline vs. 50 μg of mouse musclin peptide (SFSGFGSPLDRLSAG SVEHRGKQRKAVDHSKKR (SEQ ID NO: 4), corresponding to amino acids 80-112, Gen Bank ID: AAS87598.1, synthesized by Biosynthesis, Lewisville, Tex.) were surgically implanted within the peritoneal cavity of mice under sterile conditions and general anesthesia. Mice recovered for 7 days before exercise testing was performed.
Terminal blood collection was performed by direct cardiac puncture.
96-well ELISA Maxisorp plates (Nunc) were coated with custom rabbit anti-musclin IgG (Anaspec) at 1 μg/well in BupH carbonate-bicarbonate buffer, pH 9.4 (Thermo Scientific) at 4° C. overnight. On the next day plates were washed with TBS/0.05% Tween 20 and blocked with 5% BSA/TBS for 1 hr at room temperature. Synthetic musclin peptide was used as a standard (NH2-sfsgfgspldrlsagsvehrgkqrkavdhskkr-COOH (SEQ ID NO: 28), corresponding to amino acids 80-112, Gen Bank ID: AAS87598.1, synthesized by Biosynthesis, Lewisville, Tex.). […] Fluorescence was detected at 325/420 nm.
A general note: An ELISA detects its analyte on a solid surface through an enzyme-linked reagent.

The next series deals with WT and Ostn-KO mice. Description: Voluntary exercise performance on running wheels during musclin infusion. As for the experimental part:
as §1
Mice were housed in individual cages with free access to attached running wheels (Columbus Instruments, Columbus, Ohio). Running distance was calculated as 1/6πD·ΣRMPi, where D is wheel diameter and ΣRMPi is sum of averaged RPM values.

Setting [3] is: musclin 1 ng/g/h i.p. by osmotic pump for 7 d, skeletal muscle western blot, n=3.
[4] abbreviates: Ostn-KO mice treated with musclin by osmotic pump, night, n=4.
Setting [5] is: WT mice treated with musclin by osmotic pump, night, n=5.

As for “H-SFSGFGSPLDRLSAGSVEHRGKQRKAVDHSKKR-OH [musclin]”, in series [1] (setting [3]), the 4EBP1/GAPDH stood at 1.78±0.05, the P70S6K/GAPDH turned out to be 1.73±0.03, the “p-4EBP1/total 4EBP1” value was 0.59±0.07 and the “p-P70S6K/total P70S6K” value is 0.32±0.06. Also, in series [1] (musclin 1 ng/g/h i.p. for 7 d vs. saline-treated mice), the “phosphorylation of mTORC1 targets” value was “greater phosphorylation”. Further, the “plasma level induced by musclin infusion” value in series [2] is listed as “comparable with that observed after exercise training”. Besides, the “night-time mean velocity, voluntary running wheel” value with WT and Ostn-KO mice (Ostn-KO mice treated with musclin by osmotic pump, n=4) is given as 53±15 rotations/5 min. In addition, in the series on WT and Ostn-KO mice (setting [4]), the “distance run, voluntary running wheel” value is 2290±632 meters and the “duration of running, voluntary running wheel” value is 333 ± 53 min. In the series on WT and Ostn-KO mice (setting [5]), the “distance, voluntary running wheel” value worked out at 2202±280 meters; the “duration, voluntary running wheel” value was 336 ± 39 min; the “mean velocity, voluntary running wheel” value came out at 51±7 rotations/5 min.

These data come from patent publication US11634466B2, “Musclin peptides and methods of use thereof” (UNIVERSITY OF IOWA RESEARCH FOUNDATION, priority 2016, dated 2023).
